From patent publication US12482566B2, “Systems and methods for predicting cancer metastasis and screening of drugs” (MESTASTOP SOLUTIONS PRIVATE LIMITED, priority 2020, dated 2025)

Tested on: inducible engineered cell
Experiment: Mesenchymal to Epithelial transition (MET) assay (D11), plasticity ratio from E-Cadherin and Vimentin markers
Type: cell-based
Settings: 10 mM RA; FIG. 12A; E-Cadherin (AF 647), Vimentin (AF 488); PR with no RA 1.3
Source text: FIGS. 12A and 12B depict an assay, Mesenchymal to Epithelial transition (MET) (D11), at various concentrations of Retinoic acid (RA) assessing markers E-Cadherin and Vimentin; and RA effect on expression of E-Cadherin and Vimentin in SW480 clone 1C3, respectively, according to embodiments as disclosed herein;
FIGS. 12A and 12B are representations depicting assay for Mesenchymal to Epithelial transition (MET) (D11), at various concentrations of Retinoic acid (RA) measuring markers E-Cadherin and Vimentin; and RA effect on expression of E-Cadherin and Vimentin in SW480 clone 1C3, respectively. […] FIGS. 15A, 15B and 15C are representations depicting assay for Exosome vesicles secretion and uptake (D14), showing standard curve of exosome quantification; exosome secretion in colon cancer cells; and exosome uptake in cell lines.
Mesenchymal to Epithelial transition (MET) is the ability of the tumor cells to change from the moving cellular form, back to the growing cellular form. This is measured by detecting the change in the epithelial and mesenchymal cell markers, once cells are treated with agents promoting MET. […] Flow cytometry is used, along with imaging techniques like fluorescence markers using multiple proteins as markers, including but not limited to E cadherin, Vimentin, N Cadherin, Epcam, CD 133, CD 44, to measure MET. […]

In the case of `CC1=C(/C=C/C(C)=C/C=C/C(C)=C/C(=O)O)C(C)(C)CCC1` [RA, Retinoic acid], the “PR (plasticity ratio, mesenchymal marker Vimentin to epithelial marker E-Cadherin)” value is reported as 0.56.
